Laboratory results taken from ChEMBL document CHEMBL4359836, “Synthesis and Biological Assessment of Pyrrolobenzoxazine Scaffold as a Potent Antioxidant” (J Med Chem, 2019).
The source made the active and inactive calls. No cut-off for these calls is given here.

Experiments:
[1] = test system: Mitochondria; test: Antioxidant activity in goat cardiac mitochondria assessed as inhibition of CuCl2/ascorbic acid-induced manganese superoxide dismutase at 16.5 uM after 1 hr by pyrogallol autoxidation method relative to control; type: functional, subcellular; settings: Capra hircus, Heart, Mitochrondria
[2] = Antioxidant activity in pH 7.4 phosphate buffer assessed as H2O2 scavenging activity by measuring H2O2 decomposition at 1.34 to 10.72 uM by spectrophotometric analysis; type: functional
[3] = Antioxidant activity in pH 7.4 phosphate buffer assessed as DPPH radical scavenging activity at 64 uM after 30 mins by spectrophotometric analysis (reference value: 0.811 +/- 0.02%); type: functional
[4] = Effect on GSH level in goat cardiac mitochondria at 8.25 to 66 uM after 1 hr by DTNB reagent based method; type: ADME, subcellular, Capra hircus, Heart, Mitochrondria
[5] = test system: Mitochondria; test: Antioxidant activity in goat cardiac mitochondria assessed as inhibition of CuCl2/ascorbic acid-induced lipid peroxidation at 8.25 uM after 1 hr by thiobarbituric acid based UV-Visible spectrophotometric method (reference value: 60.11%); type: functional, subcellular; settings: Capra hircus, Heart, Mitochrondria
[6] = test system: Mitochondria; test: Antioxidant activity in goat cardiac mitochondria assessed as inhibition of CuCl2/ascorbic acid-induced lipid peroxidation at 66 uM after 1 hr by thiobarbituric acid based UV-Visible spectrophotometric method (reference value: 60.11%); type: functional, subcellular; settings: Capra hircus, Heart, Mitochrondria
[7] = test system: Mitochondria; test: Antioxidant activity in goat cardiac mitochondria assessed as inhibition of CuCl2/ascorbic acid-induced protein carbonyl content at 16.5 uM after 1 hr by DNPH assay relative to control; type: functional, subcellular; settings: Capra hircus, Heart, Mitochrondria
[8] = test system: Mitochondria; test: Antioxidant activity in goat cardiac mitochondria assessed as inhibition of CuCl2/ascorbic acid-induced protein carbonyl content at 8.25 uM after 1 hr by DNPH assay relative to control; type: functional, subcellular; settings: Capra hircus, Heart, Mitochrondria
[9] = test system: Mitochondria; test: Antioxidant activity in goat cardiac mitochondria assessed as inhibition of CuCl2/ascorbic acid-induced manganese superoxide dismutase at 33 uM after 1 hr by pyrogallol autoxidation method relative to control; type: functional, subcellular; settings: Capra hircus, Heart, Mitochrondria
[10] = test system: Mitochondria; test: Antioxidant activity in goat cardiac mitochondria assessed as reversal of CuCl2/ascorbic acid-induced reduction in GSH level at 66 uM after 1 hr by DTNB reagent based method relative to control; type: functional, subcellular; settings: Capra hircus, Heart, Mitochrondria
[11] = test system: Mitochondria; test: Antioxidant activity in goat cardiac mitochondria assessed as reversal of CuCl2/ascorbic acid-induced reduction in PDH level at 33 uM using sodium pyruvate as substrate after 1 hr by spectrophotometric analysis relative to control; type: functional, subcellular; settings: Capra hircus, Heart, Mitochrondria
[12] = test system: Mitochondria; test: Antioxidant activity in goat cardiac mitochondria assessed as reversal of CuCl2/ascorbic acid-induced reduction in ICDH level at 8.25 uM using isocitrate as substrate after 1 hr (reference value: 65.58%); type: functional, subcellular; set-up: scale not given: the % may be the effect or the level left; settings: Capra hircus, Heart, Mitochrondria
[13] = test system: Mitochondria; test: Antioxidant activity in goat cardiac mitochondria assessed as reversal of CuCl2/ascorbic acid-induced reduction in ICDH level at 66 uM using isocitrate as substrate after 1 hr relative to control; type: functional, subcellular; settings: Capra hircus, Heart, Mitochrondria
[14] = test system: Mitochondria; test: Antioxidant activity in goat cardiac mitochondria assessed as reversal of CuCl2/ascorbic acid-induced reduction in alpha-KGDH level at 8.25 uM using alpha-ketoglutarate as substrate after 1 hr (reference value: 69.78%); type: functional, subcellular; set-up: scale not given: the % may be the effect or the level left; settings: Capra hircus, Heart, Mitochrondria
[15] = test system: Mitochondria; test: Antioxidant activity in goat cardiac mitochondria assessed as reversal of CuCl2/ascorbic acid-induced reduction in alpha-KGDH level at 16.5 uM using alpha-ketoglutarate as substrate after 1 hr (reference value: 69.78%); type: functional, subcellular; set-up: scale not given: the % may be the effect or the level left; settings: Capra hircus, Heart, Mitochrondria
[16] = test system: Mitochondria; test: Antioxidant activity in goat cardiac mitochondria assessed as reversal of CuCl2/ascorbic acid-induced reduction in alpha-KGDH level at 33 uM using alpha-ketoglutarate as substrate after 1 hr relative to control; type: functional, subcellular; settings: Capra hircus, Heart, Mitochrondria
[17] = test system: Mitochondria; test: Antioxidant activity in goat cardiac mitochondria assessed as reversal of CuCl2/ascorbic acid-induced reduction in SDH level at 8.25 uM using succinate as substrate after 1 hr by spectrophotometric analysis (reference value: 71.51%); type: functional, subcellular; set-up: scale not given: the % may be the effect or the level left; settings: Capra hircus, Heart, Mitochrondria
[18] = Inhibition of alpha-ketoglutarate dehydrogenase in goat cardiac mitochondria assessed as effect on Vmax at 66 uM using alpha-ketoglutarate as substrate after 1 hr by Lineweaver-Burk double reciprocal plot analysis; set-up: species or system Capra hircus, Heart
[19] = Inhibition of succinate dehydrogenase in goat cardiac mitochondria assessed as effect on Vmax at 66 uM using succinate as substrate after 1 hr by Lineweaver-Burk double reciprocal plot analysis; set-up: species or system Capra hircus, Heart
[20] = species: Capra hircus; test: Effect on ICDH in goat cardiac mitochondria assessed as reversal of CuCl2/ascorbic acid induced reduction in Vmax at 66 uM using isocitrate as substrate after 1 hr by Lineweaver-Burk double reciprocal plot analysis; settings: Heart
[21] = species: Capra hircus; test: Effect on alpha-ketoglutarate dehydrogenase in goat cardiac mitochondria assessed as reversal of CuCl2/ascorbic acid induced reduction in Km at 66 uM using alpha-ketoglutarate as substrate after 1 hr by Lineweaver-Burk double reciprocal plot analysis; settings: Heart
[22] = test system: Mitochondria; test: Protective activity against CuCl2/ascorbic acid-induced oxidative damage in goat cardiac mitochondria assessed as reversal of CuCl2/ascorbic acid-induced reduction in fluorescence intensity at 66 uM after 1 hr by Janus green-B staining based confocal microscopic method relative to control; type: functional, subcellular; settings: Capra hircus, Heart, Mitochrondria
[23] = Effect on manganese superoxide dismutase-like activity in cardiac mitochondria at 8.25 to 66 uM after 1 hr by pyrogallol autoxidation method relative to control; type: ADME, subcellular, Capra hircus, Heart, Mitochrondria; settings: goat
[24] = test system: Mitochondria; test: (§1) Protective activity against CuCl2/ascorbic acid-induced apoptotic alteration in goat cardiac mitochondria assessed as reversal of CuCl2/ascorbic acid-induced reduction in cytochrome c oxidoreductase activity at 16.5 uM incubated for 1 hr and measured at 10 secs time interval for 90 secs by spectrophotometric analysis (reference value: 47.82%); type: functional, subcellular; set-up: scale not given: the % may be the effect or the level left; settings: Capra hircus, Heart, Mitochrondria
[25] = test system: Mitochondria; test: as §1, with “66” for “16.5”; type: functional, subcellular; set-up: scale not given: the % may be the effect or the level left; settings: Capra hircus, Heart, Mitochrondria
[26] = test system: Mitochondria; test: as §1, with “oxidase” for “oxidoreductase”, “66” for “16.5”, “uM” for “uM incubated for 1 hr and”, “relative to control” for “(reference value: 47.82%)”; type: functional, subcellular; settings: Capra hircus, Heart, Mitochrondria
[27] = test system: Mitochondria; test: Protective activity in goat cardiac mitochondria assessed as inhibition of CuCl2/ascorbic acid-induced perforated surface at 66 uM incubated for 1 hr by scanning electron microscopy; type: functional, subcellular; settings: Capra hircus, Heart, Mitochrondria
[28] = Toxicity in goat cardiac mitochondria assessed as effect on calcium accumulation at 66 uM after 60 mins by calcein AM dye-based flow cytometric analysis; type: subcellular, Capra hircus, Heart, Mitochrondria; settings: 1 h
[29] = test system: Mitochondria; test: Protection against CuCl2/ascorbic acid-induced depolarization of goat cardiac mitochondria at 66 uM after 60 mins by calcein AM dye-based flow cytometric analysis; type: functional, subcellular; settings: Capra hircus, Heart, Mitochrondria
[30] = Binding affinity to Cu2+/ascorbate assessed as decrease in heat change at 66 uM in presence of ascorbic acid/CuCl2 by isothermal titration calorimetry
[31] = Binding affinity to ascorbate at 66 uM in presence of ascorbic acid by isothermal titration calorimetry
[32] = Binding affinity to Cu2+ assessed as binding constant K1 at 66 uM in presence of ascorbic acid/CuCl2 by isothermal titration calorimetry
[33] = Binding affinity to Cu2+ assessed as binding constant K2 at 66 uM in presence of CuCl2 by isothermal titration calorimetry
[34] = Binding affinity to Cu2+ assessed as binding constant K3 at 66 uM in presence of CuCl2 by isothermal titration calorimetry
[35] = Binding affinity to Cu2+ assessed as binding constant K2 at 66 uM in presence of ascorbic acid/CuCl2 by isothermal titration calorimetry

## CCOC(=O)c1c(-c2ccc(O)c(OC)c2)cn2c1c(=O)oc1ccccc12
[1]
  inhibition: 34.1%
[2]
  Activity: inactive
[3]
  Activity: 82.3%
[4]
  Activity: Non-Toxic
[5]
  inhibition: 12.3%
[6]
  inhibition: 36.4%
[7]
  inhibition: 44%
[8]
  inhibition: 21.9%
[9]
  inhibition: 41.6%
[10]
  fold change (FC): 6.3
[11]
  fold change (FC): 2.94
[12]
  Activity: 37.7%
[13]
  fold change (FC): 3.52
[14]
  Activity: 43.1%
[15]
  Activity: 85.4%
[16]
  fold change (FC): 2.74
[17]
  Activity: 51.7%
[18]
  inhibition (INH): Not Active
[19]
  inhibition (INH): Not Active
[20]
  Activity: Active
[21]
  Activity: Active
[22]
  fold change (FC): 4.42
[23]
  Activity: Non-Toxic
[24]
  Activity: 35.2%
[25]
  Activity: 85.2%
[26]
  fold change (FC): 5.12
[27]
  Activity: Active
[28]
  Activity: Non-Toxic
[29]
  Activity: Active
[30]
  Activity: Active
[31]
  K: 4.6 ×10³ /M
[32]
  K: 8.7 ×10⁴ /M
[33]
  K: 9.55 ×10⁴ /M
[34]
  K: 1.04 ×10⁵ /M
[35]
  K: 5.07 ×10³ /M
